{"source": "patent US20260034192A1", "about": "(University of Saskatchewan, priority 2022, published 2026)", "test_system": "alpacas", "assay": "Alpaca Cetrorelix known stage study, two injections (Example 2)", "format": "in vivo", "conditions": "for Wave emergence after the first Cetrorelix injection, average: 2 x 1.5 mg i/m, D5 and D10 groups combined", "from_the_text": "Methods: The specific objective of this experiment was to identify the pattern of growth for the dominant follicle in alpacas following treatment with a GnRH antagonist during two contrasting stages of the follicular wave. Based on data from natural spontaneous waves in alpacas, the dominant follicle is expected to be in early- to mid-growing phase (6 to 7 mm in diameter) on Day 5 and in mid-static phase (9 to 10 mm) on Day 10, so the treatments were planned to begin on these days.\nThe experimental design is illustrated FIG. 3. Transrectal ovarian ultrasonography was performed using an Esoate My Lab 5 ultrasound machine and a 7.5 linear array transducer attached to a custom-build rigid PVC pipe handle. The pipe was slightly curved at the transducer end to facilitate manipulation of the transducer. The transducer and the plastic handle were lubricated using methyl cellulose ultrasound gel and inserted slowly into the rectum after manual removal of the faeces. Reproductive track and ovaries were located and 10 to 20 second video clips of left and right ovary were recorded. Sketches of ovaries were drawn daily at the time of imaging to record location, size and number of follicles >2 mm in diameter as well as the size and location of the corpus luteum (if present). Ultrasound examinations were performed daily. The experimental data recording began when a spontaneous emergence of a new follicular wave detected in an animal (defined as Extant follicular wave). The day of wave emergence was designated as Day 0 and was defined retrospectively as the first detection of the dominant follicle at 4 or 5 mm size with concomitant increase in number of 3-4 mm follicles.\nThe first group of alpacas (Control group) were given no treatment, their ovaries were examined daily and blood samples were obtained daily from Day 4 to 12 to compare hormonal data from analogous days after Cetrorelix treatment. The second group of alpacas (D5 group) were given the first intramuscular injection of 1.5 mg (3 mL of 0.5 mg per mL solution) Cetrorelix acetate on Day 5 and a second injection of 3 mL on Day 6 (i.e., two i/m injections of 1.5 mg Cetrorelix at 24 hour interval for a total dose of 3 mg). The Cetrorelix dose administered was approximately equal to 20 ug/Kg body weight per day (considering average body weight of alpaca=75 kg) and based on the previous studies in llama and cattle (Silva et al, 2011, Ulker et al 2001). Alpacas in the third group (D10 group) were given the first intramuscular injection of 1.5 mg Cetrorelix acetate on Day 10 and a second injection of 1.5 mg on Day 11.\nCetrorelix treatments were given during the extant follicular wave. Changes in the size of the dominant follicle, largest subordinate follicle, and the number of ≥3 mm follicles were recorded daily from spontaneous emergence of extant follicular wave to Day 6 of next (post-treatment) follicular wave emergence. The inter-wave interval was determined based on duration between emergence of successive follicular waves.\nBlood samples (5 to 8 mL) were collected in heparinized tubes (BD Vacutainer, BD Franklin Lakes, NJ, USA) via jugular venipuncture. Blood samples were kept on ice packs till centrifugation at 200 rpm (within 1 hr of collection) to obtain plasma samples that were immediately frozen at −20° C. until measurement of plasma LH. Plasma samples were obtained on Day 4 to 7 in Group 2 (that is, 1 day before to 1 day after Cetrorelix treatment) and on Day 9 to 12 in Group 3. For direct comparison, plasma samples were obtained from Day 4 to 12 in control group.", "key": {"[1]": {"conditions": "2 x 1.5 mg i/m starting Day 5 (D 5)"}, "[2]": {"conditions": "2 x 1.5 mg i/m starting Day 10 (D 10)"}, "[3]": {"conditions": "2 x 1.5 mg i/m starting Day 10 (D 10), n = 6"}}, "note": "Several values for one entry are separate records, joined by “and”; a condition that tells them apart may be missing. Equal entries are not always repeated. Marks after values point to notes of the source that are not given here. Square brackets hold non-standard residues; d marks the D form. Peptide text beside a SMILES is read from it. dPhe(4-Cl) = N[C@H](Cc1ccc(Cl)cc1)C(=O)O; d2Nal = N[C@H](Cc1ccc2ccccc2c1)C(=O)O; dCit = NC(=O)NCCC[C@@H](N)C(=O)O; d3Pal = N[C@H](Cc1cccnc1)C(=O)O", "data": [{"smiles": "CC(=O)N[C@H](Cc1ccc2ccccc2c1)C(=O)N[C@H](Cc1ccc(Cl)cc1)C(=O)N[C@H](Cc1cccnc1)C(=O)N[C@@H](CO)C(=O)N[C@@H](Cc1ccc(O)cc1)C(=O)N[C@H](CCCNC(N)=O)C(=O)N[C@@H](CC(C)C)C(=O)N[C@@H](CCCNC(=N)N)C(=O)N1CCC[C@H]1C(=O)N[C@H](C)C(N)=O", "note": "[Cetrorelix, N-acetyl-3-(2-naphthyl)-D-alanyl-4-chloro-D-phenylalanyl-3-(3-pyridyl)-D-alanyl-L-seryl-L-tyrosyl-D-citrullyl-L-leucyl-L-arginyl-L-prolyl-D-alaninamide] (Ac-[d2Nal][dPhe(4-Cl)][d3Pal]SY[dCit]LRP[dA]-NH2)", "values": [{"measurement": "Extant Wave: Total Number of Follicles on Day of Emergence", "setting": "1.5 mg Cetrorelix acetate i/m twice at 24 hr interval starting Day 5 (D 5)", "result": "10.71 ± 0.97"}, {"measurement": "Extant Wave: Total Number of Follicles on Day of Emergence", "setting": "1.5 mg Cetrorelix acetate i/m twice at 24 hr interval starting Day 10 (D 10)", "result": "9.14 ± 1.39"}, {"measurement": "Day of largest subordinate follicle maximum diameter", "setting": "[1]", "result": "1.86 ± 1.01", "unit": "days"}, {"measurement": "Degree of Synchrony: Days from treatment to next wave emergence", "setting": "[1]", "result": "7.71 ± 0.36 days and 7.7 ± 0.36 days"}, {"measurement": "Dominant Follicle Diameter on Day 5 (mm)", "setting": "[1]", "result": "6.64 ± 0.43", "unit": "mm"}, {"measurement": "Dominant Follicle Diameter on Day 10 (mm)", "setting": "[1]", "result": "5.50 ± 0.87^b mm"}, {"measurement": "Dominant Follicle Diameter on Day of Cetrorelix Treatment (mm)", "setting": "[1]", "result": "6.64 ± 0.43^a mm"}, {"measurement": "Dominant Follicle End of Growth (days)", "setting": "[1]", "result": "4.86 ± 0.40^b days"}, {"measurement": "Interwave Interval", "setting": "[1]", "result": "12.7 ± 0.36 days and 12.7 days"}, {"measurement": "Interwave Interval (days)", "setting": "[1]", "result": "12.71 ± 0.36^b days"}, {"measurement": "Largest Subordinate Follicle Diameter on Day 5 (mm)", "setting": "[1]", "result": "3.21 ± 0.21", "unit": "mm"}, {"measurement": "Largest Subordinate Follicle Diameter on Day 10 (mm)", "setting": "[1]", "result": "2.71 ± 0.81", "unit": "mm"}, {"measurement": "Largest Subordinate Follicle Diameter on Day of Cetrorelix Treatment (mm)", "setting": "[1]", "result": "3.21 ± 0.21", "unit": "mm"}, {"measurement": "Largest Subordinate Follicle Maximum Diameter (mm)", "setting": "[1]", "result": "4.57 ± 0.40", "unit": "mm"}, {"measurement": "Next Wave: Total Number of Follicles on Day of Emergence", "setting": "[1]", "result": "13.14 ± 1.47"}, {"measurement": "Day of dominant follicle maximum diameter", "setting": "[2]", "result": "10.3±0.68 days and 10.29 ± 0.68^a days"}, {"measurement": "Day of largest subordinate follicle maximum diameter", "setting": "[2]", "result": "6.00 ± 1.36", "unit": "days"}, {"measurement": "Dominant Follicle Diameter on Day 5 (mm)", "setting": "[2]", "result": "9.71 ± 1.77", "unit": "mm"}, {"measurement": "Dominant Follicle Diameter on Day 10 (mm)", "setting": "[2]", "result": "10.36 ± 0.85^a mm"}, {"measurement": "Dominant Follicle Diameter on Day of Cetrorelix Treatment (mm)", "setting": "[2]", "result": "10.36 ± 0.85^b mm"}, {"measurement": "Dominant Follicle End of Growth (days)", "setting": "[2]", "result": "8.00 ± 0.38^a days"}, {"measurement": "Dominant Follicle Length of Static Phase", "setting": "[2]", "result": "4.9 ± 0.40", "unit": "days"}, {"measurement": "Dominant Follicle Length of Static Phase (days)", "setting": "[2]", "result": "4.86 ± 0.40^ab days"}, {"measurement": "Dominant Follicle Maximum Diameter (mm)", "setting": "[2]", "result": "10.9±0.70 mm and 10.93 ± 0.70^a mm"}, {"measurement": "Dominant Follicle Onset of Regression", "setting": "[2]", "result": "12.9 ± 0.34", "unit": "days"}, {"measurement": "Dominant Follicle Onset of Regression (days)", "setting": "[2]", "result": "12.86 ± 0.34^a days"}, {"measurement": "Largest Subordinate Follicle Diameter on Day 5 (mm)", "setting": "[2]", "result": "4.21 ± 0.76", "unit": "mm"}, {"measurement": "Largest Subordinate Follicle Diameter on Day 10 (mm)", "setting": "[2]", "result": "4.00 ± 0.97", "unit": "mm"}, {"measurement": "Largest Subordinate Follicle Diameter on Day of Cetrorelix Treatment (mm)", "setting": "[2]", "result": "4.00 ± 0.97", "unit": "mm"}, {"measurement": "Largest Subordinate Follicle Maximum Diameter (mm)", "setting": "[2]", "result": "5.79 ± 1.02", "unit": "mm"}, {"measurement": "Interwave Interval", "setting": "[3]", "result": "17.71 ± 0.52 days and 18.17 days"}, {"measurement": "Interwave Interval (days)", "setting": "[3]", "result": "17.71 ± 0.52^c# days"}, {"measurement": "Next Wave: Total Number of Follicles on Day of Emergence", "setting": "[3]", "result": "12.14 ± 1.08"}, {"measurement": "Wave emergence after the first Cetrorelix injection, average", "result": "7.92 ± 0.24", "unit": "days"}, {"measurement": "Wave emergence after the first Cetrorelix injection, average", "setting": "listed as Cetrorelix acetate", "result": "about 7.92±0.24 days"}, {"measurement": "Interval from first treatment to next wave emergence, range", "setting": "D5 group", "result": "7 to 9", "unit": "days"}, {"measurement": "Interval from first treatment to next wave emergence, range", "setting": "D10 group", "result": "7 to 9", "unit": "days"}]}]}
